These results are taken from patent US10584116B2, “Heterocyclic sulfonamide derivative and medicine containing same” (EA Pharma Co., Ltd., priority 2016, dated 2020).

The target of one assay is human TRPA1 (Homo sapiens (Human), UniProt O75762). As to the kind of experiment: Measurement of TRPA1 antagonist activity (intracellular calcium increase induced by allylisothiocyanate in 293T cells transfected with human TRPA1). The assay is classed as cell-based. Particulars: 293T cells expressing human TRPA1, allylisothiocyanate stimulation, FLIPR Calcium4 fluorescence; read-out: hTRPA1 IC50. The method, then: Measurement of TRPA1 Antagonist Activity
Human TRPA1 Expression Plasmid
Using cDNA encoding human TRPA1 (GenBank accession No. NM_007332) (manufactured by Kazusa DNA Research Institute, item No. FHC07217) as a template, primer 1 (SEQ ID NO: 1) and primer 2 (SEQ ID NO: 2), PCR by PfuUltra High-Fidelity DNA Polymerase (Stratagene) was performed, and full-length human TRPA1 gene was amplified.
A recognition site (underlined) of restriction enzyme HindIII was added to the 5′ end of human TRPA1 gene, and XbaI site (underlined) was added to the 3′ end of human TRPA1 gene, and GTT of the template sequence was changed to termination codon TAG (bold). The obtained double stranded DNA was enzyme-digested with HindIII and XbaI, and introduced into a multicloning site of expression plasmid pcDNA3.1/zeo(+) (manufactured by Invitrogen) to give a human TRPA1 expression plasmid.
Human embryonic kidney-derived 293T cells were cultured in Dulbecco's Modified Eagle Medium containing 10% fetal bovine serum, 10 unit penicillin, and 10 μg streptomycin. One day before assay, 3×10^6 of 293T cells were plated on a petri dish having a diameter of 10 cm, and cultured in a CO2 incubator for 24 hr. OPTI-MEM I Reduced Serum Media (Invitrogen) (600 μL), Mirus TransIT-293 (Mirus Bio) (18 μL), and human TRPA1 expression plasmid (6 μg) were mixed, the total amount of the mixture was added to the cells on the petri dish to allow for gene transfer. The cells were recovered about for 8 hr later, plated on a poly-D-lysine coated 384 well black/clear bottom plate at 12,000 cells/well, and cultured overnight.
Measurement of Intracellular Calcium Increase
The medium was removed from the 384 well plate, calcium indicator (Molecular Device, trade name: FLIPR Calcium4 Assay Kit) dissolved in HBSS (Thermo Fisher Scientific) (pH 7.2) containing 20 mM HEPES was added (38 μL/well), and the cells were stained in a CO2 incubator for 1 hr. The 384 well plate was stood at room temperature for not less than 15 min, set on FDSS7000 (Hamamatsu Photonics K.K.), and a test substance solution was added at 10 μL/well. After 10 min, allylisothiocyanate solution (12 μL/well) was added, the relative fluorescence intensity was measured for 5 min after addition of the allylisothiocyanate solution.
Test Substance Preparation
Preparation of Test Substance Solution and Allylisothiocyanate Solution
A test substance solution was prepared to have a composition of HBSS (Thermo Fisher Scientific) (pH 7.2) containing 0.48% dimethyl sulfoxide, a test substance at 4.8-fold concentration of the evaluation concentration, 0.1% bovine serum albumin and 20 mM HEPES. An allylisothiocyanate solution was prepared to have a composition of HBSS (Thermo Fisher Scientific) (pH 7.2) containing 0.1% dimethyl sulfoxide, 100 μM allylisothiocyanate, 0.1% bovine serum albumin and 20 mM HEPES.
Calculation of Antagonist Activity
The activity rate of a test substance at each concentration was calculated, wherein the relative fluorescence intensity change of a well free of a test substance and containing allylisothiocyanate is 100% activity rate, and the relative fluorescence intensity change of a well free of a test substance and allylisothiocyanate is 0% activity rate. The inhibitory rate of a test substance at each concentration was calculated by subtracting the activity rate of the test substance from 100% activity rate, and the concentration of a test substance showing 50% inhibitory rate was calculated as IC50 from the sigmoid approximate curve by XLfit (idbs).

The next assay addresses TRPA1 channel (Rattus norvegicus (Rat), UniProt Q6RI86). As to the kind of experiment: AITC-induced rat blood flow evaluation test. The assay is classed as in vivo. To be noted: for rat blood flow model (% inh.): oral, 60 min before AITC (1%) application to ear, male SD rats. As for the experimental part: AITC-Induced Rat Blood Flow Evaluation Test
To evaluate the effectiveness of the test substance in vivo, allylisothiocyanate (AITC)-induced blood flow evaluation test was performed using rat.
AITC is a selective agonist of the TRPA1 channel, and causes an increase in the peripheral blood flow through TRPA1 activation when applied to animal. Therefore, the intensity of the TRPA1 antagonist action of the test substance in the living body can be evaluated by measuring the increase in the peripheral blood flow after AITC application.
1. Administration of Test Substance to Animal
As the animal, 9-11-week-old male SD rats were used. A test substance was orally administered 60 min before AITC application and evaluated. On the previous day, the blood flow was measured when vehicle was administered to the same individual.
2. Evaluation of AITC-Induced Blood Flow
Under isoflurane anesthesia, the rats were placed in a prone position and a laser was irradiated with a probe of a laser Doppler flowmeter (OMEGA FLOW FLO-N1 neuro science, inc) at a distance of 1 cm from the ear of the rat, and the blood flow was measured, which was recorded using Power lab. After confirmation of stable blood flow, 15 μL of AITC (1%) solution was applied to be spread on the ear of the rat and the blood flow was measured for 20 min.
3. Calculatuin of Inhibitory Rate
Mean blood flow for 10 seconds at each analysis time point (1, 5, 10, 15, 20 min) was calculated, and the amount of change from the blood flow before AITC application was calculated as AUC (Area under the curve). AUC (% of baseline) was determined by normalizing the value obtained by (mean of AUC after test substance administration/mean of AUC after vehicle administration to the same individual)×100 with the ratio of AUC obtained by vehicle administration for the both days. The inhibition ratio was determined by 100−AUC (% of baseline).

Sequence of TRPA1 channel (Q6RI86 whole entry): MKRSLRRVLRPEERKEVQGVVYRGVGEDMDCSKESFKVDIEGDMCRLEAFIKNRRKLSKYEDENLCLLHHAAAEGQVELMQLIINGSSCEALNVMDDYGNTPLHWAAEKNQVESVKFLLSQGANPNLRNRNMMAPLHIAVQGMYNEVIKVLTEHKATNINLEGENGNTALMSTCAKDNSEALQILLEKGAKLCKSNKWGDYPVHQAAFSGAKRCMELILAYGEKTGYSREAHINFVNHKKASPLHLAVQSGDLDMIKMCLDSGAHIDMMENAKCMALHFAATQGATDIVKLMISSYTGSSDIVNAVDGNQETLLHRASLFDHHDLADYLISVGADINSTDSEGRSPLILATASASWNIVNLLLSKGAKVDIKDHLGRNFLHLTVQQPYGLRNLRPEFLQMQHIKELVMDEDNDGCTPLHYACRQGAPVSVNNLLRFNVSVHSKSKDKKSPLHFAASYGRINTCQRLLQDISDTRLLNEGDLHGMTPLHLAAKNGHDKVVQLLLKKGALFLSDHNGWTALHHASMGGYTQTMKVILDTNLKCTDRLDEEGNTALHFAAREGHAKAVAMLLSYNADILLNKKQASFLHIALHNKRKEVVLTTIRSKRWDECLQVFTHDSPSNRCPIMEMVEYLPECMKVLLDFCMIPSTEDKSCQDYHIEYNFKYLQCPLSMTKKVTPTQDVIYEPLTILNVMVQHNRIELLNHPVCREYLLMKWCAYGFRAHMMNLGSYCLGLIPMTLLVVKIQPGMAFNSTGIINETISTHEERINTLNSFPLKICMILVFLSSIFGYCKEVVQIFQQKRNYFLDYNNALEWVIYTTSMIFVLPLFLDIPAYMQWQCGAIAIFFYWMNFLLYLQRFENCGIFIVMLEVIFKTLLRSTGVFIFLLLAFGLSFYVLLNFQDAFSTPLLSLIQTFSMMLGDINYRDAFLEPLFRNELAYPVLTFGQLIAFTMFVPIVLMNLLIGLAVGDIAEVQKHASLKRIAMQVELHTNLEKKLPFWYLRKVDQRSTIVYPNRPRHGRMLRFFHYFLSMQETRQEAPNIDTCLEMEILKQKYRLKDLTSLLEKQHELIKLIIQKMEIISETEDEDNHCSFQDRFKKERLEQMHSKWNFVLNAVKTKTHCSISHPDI
Sequence of human TRPA1 (O75762 whole entry): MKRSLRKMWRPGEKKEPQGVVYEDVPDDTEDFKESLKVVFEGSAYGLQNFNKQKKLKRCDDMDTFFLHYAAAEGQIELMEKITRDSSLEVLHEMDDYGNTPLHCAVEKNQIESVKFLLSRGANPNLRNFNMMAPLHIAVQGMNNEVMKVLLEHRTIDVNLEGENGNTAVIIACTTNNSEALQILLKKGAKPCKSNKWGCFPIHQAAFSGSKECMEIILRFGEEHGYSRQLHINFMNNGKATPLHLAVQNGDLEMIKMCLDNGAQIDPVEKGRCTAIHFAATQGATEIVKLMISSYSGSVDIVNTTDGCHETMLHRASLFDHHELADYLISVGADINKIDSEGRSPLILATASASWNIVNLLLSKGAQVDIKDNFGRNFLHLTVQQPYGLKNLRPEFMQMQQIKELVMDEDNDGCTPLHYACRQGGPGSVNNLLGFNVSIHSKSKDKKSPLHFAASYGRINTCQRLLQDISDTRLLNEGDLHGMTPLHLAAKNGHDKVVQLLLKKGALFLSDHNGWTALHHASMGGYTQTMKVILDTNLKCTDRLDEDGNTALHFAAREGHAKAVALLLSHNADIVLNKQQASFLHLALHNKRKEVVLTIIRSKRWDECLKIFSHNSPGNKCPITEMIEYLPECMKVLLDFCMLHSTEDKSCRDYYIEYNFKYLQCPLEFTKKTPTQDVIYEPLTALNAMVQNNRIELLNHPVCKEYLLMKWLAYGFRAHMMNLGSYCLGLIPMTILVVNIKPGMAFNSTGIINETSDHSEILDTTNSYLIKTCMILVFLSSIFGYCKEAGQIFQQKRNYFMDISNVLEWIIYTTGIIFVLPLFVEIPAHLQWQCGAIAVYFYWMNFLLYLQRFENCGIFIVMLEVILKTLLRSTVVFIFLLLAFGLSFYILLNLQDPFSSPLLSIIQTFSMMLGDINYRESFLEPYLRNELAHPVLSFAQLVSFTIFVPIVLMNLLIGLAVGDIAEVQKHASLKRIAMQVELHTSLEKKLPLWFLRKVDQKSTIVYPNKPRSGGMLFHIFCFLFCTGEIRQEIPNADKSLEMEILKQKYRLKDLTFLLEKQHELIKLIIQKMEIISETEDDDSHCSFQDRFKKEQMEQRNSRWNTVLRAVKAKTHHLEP

As for `CC(C)n1c(=O)c(CNC(=O)[C@@H]2CCCN2S(=O)(=O)c2cc3ccccc3o2)cn(-c2ccc(C(F)(F)F)cc2)c1=O` [Example 1, (2S)-1-(benzofuran-2-ylsulfonyl)-N-[[3-isopropyl-2,4-dioxo-1-[4-(trifluoromethyl)phenyl]pyrimidin-5-yl]methyl]pyrrolidine-2-carboxamide], the IC50 at human TRPA1 stood at 16 nM. The “AITC-induced increase in the blood flow” value on TRPA1 channel (FIG. 1, rats, doses 0.3, 1 and 3 mg/kg) is reported as “suppressed”. Also, the figures for the “rat blood flow model (% inh.)” value on TRPA1 channel (dose 0.3 mg/kg), at TRPA1 channel (dose 1 mg/kg) and on TRPA1 channel (dose 3 mg/kg) were 45 % inh, 56 % inh and 58 % inh, respectively.
In the case of `CC(C)n1cc(CNC(=O)[C@@H]2CCCN2S(=O)(=O)c2cc3c(F)cccc3o2)cc(-c2ccc(C(F)(F)F)cc2)c1=O` [Example 45, (2S)-1-(4-fluorobenzofuran-2-yl)sulfonyl-N-[[1-isopropyl-6-oxo-5-[4-(trifluoromethyl)phenyl]-3-pyridyl]methyl]pyrrolidine-2-carboxamide], the IC50 at human TRPA1 stood at 86 nM.
On the same count and under the same terms, the figure for `CC(C)n1cc(CNC(=O)[C@@H]2CCCN2S(=O)(=O)c2cc3cnccc3o2)cc(-c2ccc(C(F)(F)F)cc2)c1=O` [Example 46, (2S)-1-fro[3,2-c]pyridin-2-ylsulfonyl-N-[[1-isopropyl-6-oxo-5-[4-(trifluoromethyl)phenyl]-3-pyridyl]methyl]pyrrolidine-2-carboxamide] is 98 nM; for `CC(C)n1cc(CNC(=O)[C@@H]2[C@@H](O)CCN2S(=O)(=O)c2cc3cc(F)ccc3o2)cc(-c2ccc(C(F)(F)F)cc2)c1=O` [Example 47, (2S,3S)-1-(5-fluorobenzofuran-2-yl)sulfonyl-3-hydroxy-N-[[1-isopropyl-6-oxo-5-[4-(trifluoromethyl)phenyl]-3-pyridyl]methyl]pyrrolidine-2-carboxamide] it is 230 nM.
With `CC(C)n1cc(CNC(=O)[C@@H]2CCCN2S(=O)(=O)c2cc3ccccc3o2)cc(-c2ccc(C(F)(F)F)nc2)c1=O` [Example 48, (2S)-1-(benzofuran-2-ylsulfonyl)-N-[[1-isopropyl-6-oxo-5-[6-(trifluoromethyl)-3-pyridyl]-3-pyridyl]methyl]pyrrolidine-2-carboxamide], the IC50 on human TRPA1 turned out to be 210 nM.
Consider `CC(C)n1cc(CNC(=O)[C@@H]2CCCN2S(=O)(=O)c2cc3cc(F)ccc3o2)cc(-c2ccc(C(F)(F)F)nc2)c1=O` [Example 49, (2S)-1-(5-fluorobenzofuran-2-yl)sulfonyl-N-[[1-isopropyl-6-oxo-5-[6-(trifluoromethyl)-3-pyridyl]-3-pyridyl]methyl]pyrrolidine-2-carboxamide], for which the IC50 at human TRPA1 stood at 45 nM.
With `CC(C)n1cc(CNC(=O)[C@@H]2CCCN2S(=O)(=O)c2cc3ccccc3o2)cc(-c2ccc(C(F)(F)F)cn2)c1=O` [Example 50, (2S)-1-(benzofuran-2-ylsulfonyl)-N-[[1-isopropyl-6-oxo-5-[5-(trifluoromethyl)-2-pyridyl]-3-pyridyl]methyl]pyrrolidine-2-carboxamide], the IC50 at human TRPA1 worked out at 110 nM.
Consider `CC(C)n1cc(CNC(=O)[C@@H]2CCCN2S(=O)(=O)c2cc3cc(F)ccc3o2)cc(-c2ccc(C(F)(F)F)cn2)c1=O` [Example 51, (2S)-1-(5-fluorobenzofuran-2-yl)sulfonyl-N-[[1-isopropyl-6-oxo-5-[5-(trifluoromethyl)-2-pyridyl]-3-pyridyl]methyl]pyrrolidine-2-carboxamide], for which the IC50 on human TRPA1 amounted to 81 nM.
